Biological target: T1, ZAP70 (Homo sapiens, UniProt P43403)
T1 construct: purchased Thermo Fisher Scientific (Life Technologies) SelectScreen
Assay: SelectScreen Z'LYTE
Format: biochemical
Method in brief: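 SelectScreen broad panel; activity (Z'LYTE, Adapta) plus binding formats. ATP: Km app for CSF1R Z'LYTE; 10 for CAMK1 Adapta. Readout = % per kinase.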

T1 sequence (P43403 whole entry): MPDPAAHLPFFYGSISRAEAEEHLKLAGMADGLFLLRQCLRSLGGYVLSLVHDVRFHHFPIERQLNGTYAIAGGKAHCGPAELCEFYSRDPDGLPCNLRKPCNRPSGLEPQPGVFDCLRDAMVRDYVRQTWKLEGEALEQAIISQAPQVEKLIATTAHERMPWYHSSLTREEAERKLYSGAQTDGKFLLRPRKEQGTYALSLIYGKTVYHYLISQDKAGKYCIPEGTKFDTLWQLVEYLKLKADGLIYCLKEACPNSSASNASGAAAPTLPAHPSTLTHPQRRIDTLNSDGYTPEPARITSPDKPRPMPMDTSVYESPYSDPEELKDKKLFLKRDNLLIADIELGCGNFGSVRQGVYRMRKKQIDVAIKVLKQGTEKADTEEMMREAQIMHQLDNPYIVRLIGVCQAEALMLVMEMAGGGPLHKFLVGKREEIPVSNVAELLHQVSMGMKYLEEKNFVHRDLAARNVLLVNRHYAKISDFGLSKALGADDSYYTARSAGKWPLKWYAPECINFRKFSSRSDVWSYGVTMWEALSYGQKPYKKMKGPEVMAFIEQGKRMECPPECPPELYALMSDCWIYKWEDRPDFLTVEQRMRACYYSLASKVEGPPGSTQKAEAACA

Compound `CN(C(=O)CN1CCOCC1)c1ccc2sc3c(-c4cccc5c(=O)cc(N6CC7CCC(C6)O7)oc45)cccc3c2c1` [NU5455] has an inhibition at 1 µM of 0.3%.

From paper PMC6934184, “Selective DNA-PKcs inhibition extends the therapeutic index of localized radiotherapy and chemotherapy” (The Journal of Clinical Investigation, 2019)
